Assay [1] has as its system Microsporum canis. The experiment in a line: Antifungal activity against Microsporum canis at […] after 7 days by tube dilution method. The class given is functional, organism-based.
The test system of assay [2] is Proteus mirabilis. In words: Antibacterial activity against Proteus mirabilis at 200 ug/100 uL by agar well diffusion assay. Format: functional, organism-based.
Assay [3] deals with Lemna minor. In words: Phytotoxicity against Lemna minor L. at 5 ppm. The class given is functional.
Assay [4] has as its system Salmonella typhi. The experiment in a line: Antibacterial activity against Salmonella typhi at 200 ug/100 uL by agar well diffusion assay. Format: functional, organism-based. The conditions noted are these: Salmonella enterica subsp. enterica serovar Typhi. (In general: Agar diffusion results depend on both activity and mobility in agar.)
The test system of assay [5] is Escherichia coli. In words: Antibacterial activity against Escherichia coli at 200 ug/100 uL by agar well diffusion assay. Format: functional, organism-based.
For assay [6], the system named is Epidermophyton floccosum. The experiment in a line: Antifungal activity against Epidermophyton floccosum at […] after 7 days by tube dilution method. Format: functional, organism-based.
Assay [7] concerns Proteus vulgaris. The experiment in a line: Antibacterial activity against Proteus vulgaris at 200 ug/100 uL by agar well diffusion assay. Format: functional, organism-based.
The subject of assay [8] is Lemna minor. In words: Phytotoxicity against Lemna minor L. at 500 ppm. The class given is functional.
Assay [9] concerns Stachybotrys chartarum. In words: Antifungal activity against Stachybotrys atra at […] after 7 days by tube dilution method. Format: functional, organism-based.
Assay [10] has as its system Shigella flexneri. In words: Antibacterial activity against Shigella flexnerii at 200 ug/100 uL by agar well diffusion assay. Format: functional, organism-based.
For assay [11], the system named is Lemna minor. The experiment in a line: Phytotoxicity against Lemna minor L. at 50 ppm. The class given is functional.

The source made the active and inactive calls. No cut-off for these calls is given here.

On to `C[C@@H]([C@H]1[C@H](O)C[C@@]2(C)[C@@H]3CC[C@@H]4C(=CC[C@H](NC(=O)c5ccccc5)C4(C)C)CC3=CC[C@]12C)N(C)C` [16ALPHA-HYDROXY-NA-BENZOYLBUXADINE], for which the outcome in [1], in [2], in [4], in [5], in [6] and in assay [7] was Active. The outcome in [9] and in [10] was Active. Moreover, the values for the Activity in assay [3], in assay [8] and in assay [11] were 20.3%, 46% and 28.6%, respectively.

The record behind these values is ChEMBL document CHEMBL1146424, “New Steroidal Alkaloids from the Roots of Buxus sempervirens” (1997).
